Here are results for one molecule from patent US20030032639A1, “Composition and method for reducing adverse interactions between phenothiazine derivatives and plasma using surfactants and amino acids” (Wyeth, priority 2001, published 2003).

The conditions of data set [1]: cited from earlier work.
The nature of data set [2]: promethazine hydrochloride preparation mixed with plasma in vitro, relative amount of precipitate formed. In kind it is physicochemical. To be noted: laboratory studies, ratio not stated. The source says:
Without being bound by any particular theory, it is believed that this precipitate formation could be related to the venous thrombosis found at the injection site, as well as the cause of other local adverse reactions involving promethazine injection. […] With a composition according to one or more of the embodiments set forth herein, it is expected that a promethazine solution given by the routes of i.v. and i.m. (intramuscular) injection would have fewer incidences of irritation and other adverse reactions at the site of injection.

For data set [3] the following is noted: after intramuscular injection; cited from earlier work.

Take `CC(CN1c2ccccc2Sc2ccccc21)N(C)C.Cl` (racemic) [promethazine hydrochloride, 10H-Phenothiazine-10-ethanamine, N,N, α-trimethyl-, monohydrochloride, (±)]: the “adverse reactions at the local area of injection” value in data set [1] (clinical case reports) was “irritation and other serious adverse reactions at the local area of injection, particularly gangrene at the extremity of the injection site”. Moreover, the “venous thrombosis at the injection site” value in data set [1] (in vivo, iv) is given as “some incidents of venous thrombosis at the injection site”. For the same molecule, the “precipitate formation when solution is mixed with plasma” value in data set [2] is recorded as “precipitates form immediately”. In addition, the “plasma creatine kinase levels (indication of muscle irritation)” value in data set [3] is on record as “raise plasma creatine kinase levels”.
